Experimental data reported in patent US9708334B2, “Substituted 2,4,5,6-tetrahydropyrrolo[3,4-c]pyrazole and 4,5,6,7-tetrahydro-2H-pyrazolo[4,3-c]pyridine compounds as GlyT1 inhibitors” (DART NEUROSCIENCE (CAYMAN) LTD., priority 2014, dated 2017).
One block for each molecule: values may come before it.

Biological target: T1, GlyT1 (Homo sapiens, UniProt P48067)
T1 construct: expressed in transfected cells
T1 sequence (P48067 1-706): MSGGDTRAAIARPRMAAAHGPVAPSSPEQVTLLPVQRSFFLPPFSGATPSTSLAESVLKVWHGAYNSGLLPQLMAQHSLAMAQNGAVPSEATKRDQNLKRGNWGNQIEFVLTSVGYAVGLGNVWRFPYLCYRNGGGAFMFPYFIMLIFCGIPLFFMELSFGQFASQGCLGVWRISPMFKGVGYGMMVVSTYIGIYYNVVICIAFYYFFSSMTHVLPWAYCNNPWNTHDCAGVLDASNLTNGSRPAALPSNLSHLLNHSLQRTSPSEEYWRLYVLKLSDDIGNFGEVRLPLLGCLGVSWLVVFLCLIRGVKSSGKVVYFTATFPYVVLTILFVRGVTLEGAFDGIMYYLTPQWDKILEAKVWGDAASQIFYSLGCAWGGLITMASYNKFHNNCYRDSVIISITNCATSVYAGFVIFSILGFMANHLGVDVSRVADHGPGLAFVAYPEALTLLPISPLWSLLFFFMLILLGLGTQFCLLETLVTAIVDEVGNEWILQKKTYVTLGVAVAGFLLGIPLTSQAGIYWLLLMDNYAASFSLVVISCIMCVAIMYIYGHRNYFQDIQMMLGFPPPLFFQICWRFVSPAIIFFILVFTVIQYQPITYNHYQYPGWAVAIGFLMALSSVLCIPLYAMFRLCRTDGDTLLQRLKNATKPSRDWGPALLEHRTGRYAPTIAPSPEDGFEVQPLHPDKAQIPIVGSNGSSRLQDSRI
Test: Glycine Transporter 1 (GlyT1) uptake assay, scintillation proximity assay of [14C]-glycine uptake
Assay type: cell-based
Settings: SPA, four parameter logistic fit, read-out: GlyT1 (pIC50) (converted)
Summary of the method: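 [14C]-glycine uptake read by scintillation proximity on a plate counter. IC50 from four-parameter logistic fit of dose-response data.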

SMILES: Cc1cc(F)cnc1-n1cc2c(n1)CN(C(=O)c1cc(S(C)(=O)=O)ccc1O[C@@H](C)C(F)(F)F)C2 [Example 361, 5-Fluoro-2-[5-(5-methanesulfonyl-2-{[(2S)-1 1 1-trifluoropropan-2-yl]oxy}benzoyl)-2H 4H 5H 6H-pyrrolo[3,4-c]pyrazol-2-yl]-3-methylpyridine]
IC50: 0.1 to 1 µM

SMILES: Cc1nc(-n2cc3c(n2)CN(C(=O)c2cc(S(C)(=O)=O)ccc2O[C@@H](C)C(F)(F)F)C3)ccc1F [Example 362, 3-Fluoro-6-[5-(5-methanesulfonyl-2-{[(2S)-1 1 1-trifluoropropan-2-yl]oxy}benzoyl)-2H 4H 5H 6H-pyrrolo[3,4-c]pyrazol-2-yl]-2-methylpyridine]
IC50: < 0.1 µM

SMILES: CS(=O)(=O)c1ccc(N2CCCCC2)c(C(=O)N2Cc3cn(-c4ccc(F)cc4)nc3C2)c1 [Example 363, 1-{2-[2-(4-Fluorophenyl)-2H 4H 5H 6H-pyrrolo[3,4-c]pyrazole-5-carbonyl]-4-methanesulfonylphenyl}piperidine]
IC50: < 0.1 µM

SMILES: COc1cc(-n2ncc3c2CN(C(=O)c2cc(C#N)ccc2OC(C)C)C3)ccn1 [Example 366, 3-[1-(2-Methoxypyridin-4-yl)-1H 4H 5H 6H-pyrrolo[3,4-c]pyrazole-5-carbonyl]-4-(propan-2-yloxy)benzonitrile]
IC50: 1 to 10 µM

SMILES: CCc1cc(-n2cc3c(n2)CN(C(=O)c2cc(C#N)ccc2OC(C)C)C3)ccn1 [Example 368, 3-[2-(2-Ethylpyridin-4-yl)-2H 4H 5H 6H-pyrrolo[3,4-c]pyrazole-5-carbonyl]-4-(propan-2-yloxy)benzonitrile]
IC50: < 0.1 µM

SMILES: COc1cc(-n2cc3c(n2)CN(C(=O)c2cc(C#N)ccc2OC(C)C)C3)ccn1 [Example 369, 3-[2-(2-Methoxypyridin-4-yl)-2H 4H 5H 6H-pyrrolo[3,4-c]pyrazole-5-carbonyl]-4-(propan-2-yloxy)benzonitrile]
IC50: < 0.1 µM

SMILES: CCOc1cc(-n2cc3c(n2)CN(C(=O)c2cc(C#N)ccc2OC(C)C)C3)ccn1 [Example 370, 3-[2-(2-Ethoxypyridin-4-yl)-2H 4H 5H 6H-pyrrolo[3,4-c]pyrazole-5-carbonyl]-4-(propan-2-yloxy)benzonitrile]
IC50: 0.1 to 1 µM

SMILES: CC(C)Oc1cc(-n2cc3c(n2)CN(C(=O)c2cc(C#N)ccc2OC(C)C)C3)ccn1 [Example 373, 4-(Propan-2-yloxy)-3-{2-[2-(propan-2-yloxy)pyridin-4-yl]-2H 4H 5H 6H-pyrrolo[3,4-c]pyrazole-5-carbonyl}benzonitrile]
IC50: 0.1 to 1 µM

SMILES: CC(C)Oc1ccc(C#N)cc1C(=O)N1Cc2cn(-c3ccnc(C(C)C)c3)nc2C1 [Example 374, 3-{2-[2-(Propan-2-yl)pyridin-4-yl]-2H 4H 5H 6H-pyrrolo[3,4-c]pyrazole-5-carbonyl}-4-(propan-2-yloxy)benzonitrile]
IC50: < 0.1 µM

SMILES: COc1c(C#N)ccc(C2(F)CCCC2)c1C(=O)N1Cc2cn(-c3ccnc(C)c3)nc2C1 [Example 376, 4-(1-Fluorocyclopentyl)-2-methoxy-3-[2-(2-methylpyridin-4-yl)-2H 4H 5H 6H-pyrrolo[3,4-c]pyrazole-5-carbonyl]benzonitrile]
IC50: < 0.1 µM

SMILES: COc1c(C#N)ccc(C2(F)CCCC2)c1C(=O)N1Cc2cn(-c3cncc(F)c3)nc2C1 [Example 377, 4-(1-Fluorocyclopentyl)-3-[2-(5-fluoropyridin-3-yl)-2H 4H 5H 6H-pyrrolo[3,4-c]pyrazole-5-carbonyl]-2-methoxybenzonitrile]
IC50: < 0.1 µM

SMILES: Cc1cc(-n2cc3c(n2)CN(C(=O)c2cc(C#N)ccc2OC(C)C)C3)cc(C)n1 [Example 381, 3-[2-(2 6-Dimethylpyridin-4-yl)-2H 4H 5H 6H-pyrrolo[3,4-c]pyrazole-5-carbonyl]-4-(propan-2-yloxy)benzonitrile]
IC50: < 0.1 µM

SMILES: C[C@H](Oc1ccc(C#N)cc1C(=O)N1Cc2cnn(Cc3ccccc3)c2C1)C(F)(F)F [Example 383]
IC50: 1 to 10 µM

Second part, the molecule after the results:

IC50: < 0.1 µM
SMILES: COc1cc(-n2cc3c(n2)CN(C(=O)c2cc(C#N)ccc2O[C@@H](C)C(F)(F)F)C3)ccn1 [Example 364, 3-[2-(2-Methoxypyridin-4-yl)-2H 4H 5H 6H-pyrrolo[3,4-c]pyrazole-5-carbonyl]-4-{[(2S)-1 1 1-trifluoropropan-2-yl]oxy}benzonitrile]

IC50: 1 to 10 µM
SMILES: COc1cc(-n2ncc3c2CN(C(=O)c2cc(C#N)ccc2O[C@@H](C)C(F)(F)F)C3)ccn1 [Example 365, 3-[1-(2-Methoxypyridin-4-yl)-1H 4H 5H 6H-pyrrolo[3,4-c]pyrazole-5-carbonyl]-4-{[(2S)-1 1 1-trifluoropropan-2-yl]oxy}benzonitrile]

IC50: < 0.1 µM
SMILES: CCc1cc(-n2cc3c(n2)CN(C(=O)c2cc(C#N)ccc2O[C@@H](C)C(F)(F)F)C3)ccn1 [Example 367, 3-[2-(2-Ethylpyridin-4-yl)-2H 4H 5H 6H-pyrrolo[3,4-c]pyrazole-5-carbonyl]-4-{[(2S)-1 1 1-trifluoropropan-2-yl]oxy}benzonitrile]

IC50: 0.1 to 1 µM
SMILES: CCOc1cc(-n2cc3c(n2)CN(C(=O)c2cc(C#N)ccc2O[C@@H](C)C(F)(F)F)C3)ccn1 [Example 371, 3-[2-(2-Ethoxypyridin-4-yl)-2H 4H 5H 6H-pyrrolo[3,4-c]pyrazole-5-carbonyl]-4-{[(2S)-1 1 1-trifluoropropan-2-yl]oxy}benzonitrile]

IC50: < 0.1 µM
SMILES: CC(C)c1cc(-n2cc3c(n2)CN(C(=O)c2cc(C#N)ccc2O[C@@H](C)C(F)(F)F)C3)ccn1 [Example 375, 3-{2-[2-(Propan-2-yl)pyridin-4-yl]-2H 4H 5H 6H-pyrrolo[3,4-c]pyrazole-5-carbonyl}-4-{[(2S)-1 1 1-trifluoropropan-2-yl]oxy}benzonitrile]

IC50: 0.1 to 1 µM
SMILES: C[C@H](Oc1ccc(C#N)cc1C(=O)N1Cc2cn(CC(C)(C)F)nc2C1)C(F)(F)F [Example 378, 3-[2-(2-Fluoro-2-methylpropyl)-2H 4H 5H 6H-pyrrolo[3,4-c]pyrazole-5-carbonyl]-4-{[(2S)-1 1 1-trifluoropropan-2-yl]oxy}benzonitrile]

IC50: > 10 µM
SMILES: C[C@H](Oc1ccc(C#N)cc1C(=O)N1Cc2cnn(CC(C)(C)F)c2C1)C(F)(F)F [Example 379, 3-[1-(2-Fluoro-2-methylpropyl)-1H 4H 5H 6H-pyrrolo[3,4-c]pyrazole-5-carbonyl]-4-{[(2S)-1 1 1-trifluoropropan-2-yl]oxy}benzonitrile]

IC50: < 0.1 µM
SMILES: Cc1cc(-n2cc3c(n2)CN(C(=O)c2cc(C#N)ccc2O[C@@H](C)C(F)(F)F)C3)cc(C)n1 [Example 380, 3-[2-(2 6-Dimethylpyridin-4-yl)-2H 4H 5H 6H-pyrrolo[3,4-c]pyrazole-5-carbonyl]-4-{[(2S)-1 1 1-trifluoropropan-2-yl]oxy}benzonitrile]

IC50: 0.1 to 1 µM
SMILES: C[C@H](Oc1ccc(C#N)cc1C(=O)N1Cc2cn(Cc3ccccc3)nc2C1)C(F)(F)F [Example 382]

IC50: 1 to 10 µM
SMILES: CC(C)n1ncc2c1CN(C(=O)c1cc(C#N)ccc1O[C@@H](C)C(F)(F)F)C2 [Example 384, 3-[1-(Propan-2-yl)-1H 4H 5H 6H-pyrrolo[3,4-e]pyrazole-5-carbonyl]-4-{[(2S)-1 1 1-trifluoropropan-2-yl]oxy}benzonitrile]

IC50: 1 to 10 µM
SMILES: CC(C)n1cc2c(n1)CN(C(=O)c1cc(C#N)ccc1O[C@@H](C)C(F)(F)F)C2 [Example 385, 3-[2-(Propan-2-yl)-2H 4H 5H 6H-pyrrolo[3,4-c]pyrazole-5-carbonyl]-4-{[(2 S)-1 1 1-trifluoropropan-2-yl]oxy}benzonitrile]
